From ChEMBL document CHEMBL3046001, “4-Thiazolidinone and 1-thia-3,4,9-triaza fluorene conjugates: synthesis, characterization and antimicrobial screening” (2013)
In brackets after ≈: the same amount, converted by molar mass. Activity calls are given as the source filed them. The calls are words filed in the database; no cut-off is given here.

Key:
Penicillium chrysogenum [1] = assay: Antifungal activity against Penicillium chrysogenum MTCC 161 assessed as growth inhibition after 24 hr by tube dilution method; assay type: functional; conditions: MTCC 161, 24 h
Micrococcus luteus [2] = assay: Antibacterial activity against Micrococcus luteus MTCC 1538 assessed as growth inhibition after 24 hr by tube dilution method; assay type: functional; conditions: MTCC 1538, 24 h
Escherichia coli [3] = assay: Antibacterial activity against Escherichia coli MTCC 1573 assessed as growth inhibition after 24 hr by tube dilution method; assay type: functional; conditions: MTCC 1573, 24 h
Bacillus pumilus [4] = assay: Antibacterial activity against Bacillus pumilus MTCC 1456 assessed as growth inhibition after 24 hr by tube dilution method; assay type: functional; conditions: MTCC 1456, 24 h
Staphylococcus aureus [5] = assay: Antibacterial activity against Staphylococcus aureus MTCC 1430 assessed as growth inhibition after 24 hr by tube dilution method; assay type: functional; conditions: MTCC 1430, 24 h
Bacillus subtilis [6] = assay: Antibacterial activity against Bacillus subtilis MTCC 441 assessed as growth inhibition after 24 hr by tube dilution method; assay type: functional; conditions: MTCC 441, 24 h
Bacillus subtilis [7] = assay: Antibacterial activity against Bacillus subtilis MTCC 441 assessed as growth inhibition at 750 ug/mL after 48 hr by agar diffusion method; assay type: functional; conditions: MTCC 441, 48 h, read-out: DIZ
Bacillus subtilis [8] = assay: Antibacterial activity against Bacillus subtilis MTCC 441 assessed as growth inhibition at 250 ug/mL after 48 hr by agar diffusion method; assay type: functional; conditions: MTCC 441, 48 h, read-out: DIZ
Bacillus subtilis [9] = assay: Antibacterial activity against Bacillus subtilis MTCC 441 assessed as growth inhibition at 100 ug/mL after 48 hr by agar diffusion method; assay type: functional; conditions: MTCC 441, 48 h, read-out: DIZ
Penicillium chrysogenum [10] = assay: Antifungal activity against Penicillium chrysogenum MTCC 161 assessed as growth inhibition at 1000 ug/mL after 48 hr by agar diffusion method; assay type: functional; conditions: MTCC 161, 48 h, read-out: DIZ
Penicillium chrysogenum [11] = assay: Antifungal activity against Penicillium chrysogenum MTCC 161 assessed as growth inhibition at 500 ug/mL after 48 hr by agar diffusion method; assay type: functional; conditions: MTCC 161, 48 h, read-out: DIZ
Penicillium chrysogenum [12] = assay: Antifungal activity against Penicillium chrysogenum MTCC 161 assessed as growth inhibition at 250 ug/mL after 48 hr by agar diffusion method; assay type: functional
Aspergillus niger [13] = assay: Antifungal activity against Aspergillus niger MTCC 2546 assessed as growth inhibition at 500 ug/mL after 48 hr by agar diffusion method; assay type: functional; conditions: MTCC 2546, 48 h, read-out: DIZ
Aspergillus niger [14] = assay: Antifungal activity against Aspergillus niger MTCC 2546 assessed as growth inhibition at 250 ug/mL after 48 hr by agar diffusion method; assay type: functional
Aspergillus niger [15] = assay: Antifungal activity against Aspergillus niger MTCC 2546 assessed as growth inhibition at 100 ug/mL after 48 hr by agar diffusion method; assay type: functional, organism-based
Pseudomonas fluorescens [16] = assay: Antibacterial activity against Pseudomonas fluorescens MTCC 2421 assessed as growth inhibition at 1250 ug/mL after 48 hr by agar diffusion method; assay type: functional; conditions: MTCC 2421, 48 h, read-out: DIZ
Pseudomonas fluorescens [17] = assay: Antibacterial activity against Pseudomonas fluorescens MTCC 2421 assessed as growth inhibition at 750 ug/mL after 48 hr by agar diffusion method; assay type: functional; conditions: MTCC 2421, 48 h, read-out: DIZ
Pseudomonas fluorescens [18] = assay: Antibacterial activity against Pseudomonas fluorescens MTCC 2421 assessed as growth inhibition at 500 ug/mL after 48 hr by agar diffusion method; assay type: functional; conditions: MTCC 2421, 48 h, read-out: DIZ
Micrococcus luteus [19] = assay: Antibacterial activity against Micrococcus luteus MTCC 1538 assessed as growth inhibition at 250 ug/mL after 48 hr by agar diffusion method; assay type: functional
Micrococcus luteus [20] = assay: Antibacterial activity against Micrococcus luteus MTCC 1538 assessed as growth inhibition at 100 ug/mL after 48 hr by agar diffusion method; assay type: functional
Bacillus pumilus [21] = assay: Antibacterial activity against Bacillus pumilus MTCC 1456 assessed as growth inhibition at 1250 ug/mL after 48 hr by agar diffusion method; assay type: functional; conditions: MTCC 1456, 48 h, read-out: DIZ
Bacillus pumilus [22] = assay: Antibacterial activity against Bacillus pumilus MTCC 1456 assessed as growth inhibition at 1000 ug/mL after 48 hr by agar diffusion method; assay type: functional; conditions: MTCC 1456, 48 h, read-out: DIZ
Bacillus pumilus [23] = assay: Antibacterial activity against Bacillus pumilus MTCC 1456 assessed as growth inhibition at 750 ug/mL after 48 hr by agar diffusion method; assay type: functional; conditions: MTCC 1456, 48 h, read-out: DIZ
Bacillus pumilus [24] = assay: Antibacterial activity against Bacillus pumilus MTCC 1456 assessed as growth inhibition at 250 ug/mL after 48 hr by agar diffusion method; assay type: functional; conditions: MTCC 1456, 48 h, read-out: DIZ
Bacillus pumilus [25] = assay: Antibacterial activity against Bacillus pumilus MTCC 1456 assessed as growth inhibition at 100 ug/mL after 48 hr by agar diffusion method; assay type: functional; conditions: MTCC 1456, 48 h, read-out: DIZ
Staphylococcus aureus [26] = assay: Antibacterial activity against Staphylococcus aureus MTCC 1430 assessed as growth inhibition at 1250 ug/mL after 48 hr by agar diffusion method; assay type: functional; conditions: MTCC 1430, 48 h, read-out: DIZ
Staphylococcus aureus [27] = assay: Antibacterial activity against Staphylococcus aureus MTCC 1430 assessed as growth inhibition at 1000 ug/mL after 48 hr by agar diffusion method; assay type: functional; conditions: MTCC 1430, 48 h, read-out: DIZ
Staphylococcus aureus [28] = assay: Antibacterial activity against Staphylococcus aureus MTCC 1430 assessed as growth inhibition at 750 ug/mL after 48 hr by agar diffusion method; assay type: functional; conditions: MTCC 1430, 48 h, read-out: DIZ
Staphylococcus aureus [29] = assay: Antibacterial activity against Staphylococcus aureus MTCC 1430 assessed as growth inhibition at 500 ug/mL after 48 hr by agar diffusion method; assay type: functional; conditions: MTCC 1430, 48 h, read-out: DIZ
Staphylococcus aureus [30] = assay: Antibacterial activity against Staphylococcus aureus MTCC 1430 assessed as growth inhibition at 250 ug/mL after 48 hr by agar diffusion method; assay type: functional
Pseudomonas aeruginosa [31] = assay: Antibacterial activity against Pseudomonas aeruginosa MTCC 424 assessed as growth inhibition at 250 ug/mL after 48 hr by agar diffusion method; assay type: functional; conditions: MTCC 424, 48 h, read-out: DIZ
Micrococcus luteus [32] = assay: Antibacterial activity against Micrococcus luteus MTCC 1538 assessed as growth inhibition at 1000 ug/mL after 48 hr by agar diffusion method; assay type: functional; conditions: MTCC 1538, 48 h, read-out: DIZ
Pseudomonas fluorescens [33] = assay: Antibacterial activity against Pseudomonas fluorescens MTCC 2421 assessed as growth inhibition at 100 ug/mL after 48 hr by agar diffusion method; assay type: functional
Escherichia coli [34] = assay: Antibacterial activity against Escherichia coli MTCC 1573 assessed as growth inhibition at 1250 ug/mL after 48 hr by agar diffusion method; assay type: functional; conditions: MTCC 1573, 48 h, read-out: DIZ
Escherichia coli [35] = assay: Antibacterial activity against Escherichia coli MTCC 1573 assessed as growth inhibition at 1000 ug/mL after 48 hr by agar diffusion method; assay type: functional; conditions: MTCC 1573, 48 h, read-out: DIZ
Escherichia coli [36] = assay: Antibacterial activity against Escherichia coli MTCC 1573 assessed as growth inhibition at 750 ug/mL after 48 hr by agar diffusion method; assay type: functional; conditions: MTCC 1573, 48 h, read-out: DIZ
Escherichia coli [37] = assay: Antibacterial activity against Escherichia coli MTCC 1573 assessed as growth inhibition at 250 ug/mL after 48 hr by agar diffusion method; assay type: functional; conditions: MTCC 1573, 48 h, read-out: DIZ
Pseudomonas aeruginosa [38] = assay: Antibacterial activity against Pseudomonas aeruginosa MTCC 424 assessed as growth inhibition at 1250 ug/mL after 48 hr by agar diffusion method; assay type: functional; conditions: MTCC 424, 48 h, read-out: DIZ
Pseudomonas aeruginosa [39] = assay: Antibacterial activity against Pseudomonas aeruginosa MTCC 424 assessed as growth inhibition at 750 ug/mL after 48 hr by agar diffusion method; assay type: functional; conditions: MTCC 424, 48 h, read-out: DIZ

Row | MIC (Penicillium chrysogenum [1]) [mg/L] | MIC (Micrococcus luteus [2]) [mg/L] | MIC (Escherichia coli [3]) [mg/L] | MIC (Bacillus pumilus [4]) [mg/L] | MIC (Staphylococcus aureus [5]) [mg/L] | MIC (Bacillus subtilis [6]) [mg/L] | SMILES | zone of inhibition at 750 µg/mL (Bacillus subtilis [7]) [mm] | zone of inhibition at 250 µg/mL (Bacillus subtilis [8]) [mm] | zone of inhibition at 100 µg/mL (Bacillus subtilis [9]) [mm] | zone of inhibition at 1000 µg/mL (Penicillium chrysogenum [10]) [mm] | zone of inhibition at 500 µg/mL (Penicillium chrysogenum [11]) [mm] | growth inhibition (GI) (Penicillium chrysogenum [12]) | zone of inhibition at 500 µg/mL (Aspergillus niger [13]) [mm] | growth inhibition (GI) (Aspergillus niger [14]) | growth inhibition (GI) (Aspergillus niger [15]) | zone of inhibition at 1250 µg/mL (Pseudomonas fluorescens [16]) [mm] | zone of inhibition at 750 µg/mL (Pseudomonas fluorescens [17]) [mm] | zone of inhibition at 500 µg/mL (Pseudomonas fluorescens [18]) [mm] | zone of inhibition at 1250 µg/mL (Bacillus pumilus [21]) [mm] | zone of inhibition at 1000 µg/mL (Bacillus pumilus [22]) [mm] | also measured
1 | 250 (≈ 827 µM) | 40 (≈ 132 µM) | 40 (≈ 132 µM) | 30 (≈ 99.2 µM) | 250 (≈ 827 µM) | 30 (≈ 99.2 µM) | CC1SCC(=O)N1c1nnc2c3ccccc3nc-2s1 (stereo not drawn) | 18 | 13 | 10 | 15 | 10 | inactive | 8 | inactive | inactive | 24 | 17 | 13 | 25 | 22 | zone of inhibition at 250 µg/mL (Micrococcus luteus [19]; MTCC 1538, 48 h, read-out: DIZ): 10 mm; zone of inhibition at 100 µg/mL (Micrococcus luteus [20]; MTCC 1538, 48 h, read-out: DIZ): 8 mm; zone of inhibition at 750 µg/mL (Bacillus pumilus [23]): 18 mm; zone of inhibition at 250 µg/mL (Bacillus pumilus [24]): 9 mm; zone of inhibition at 100 µg/mL (Bacillus pumilus [25]): 7 mm; zone of inhibition at 1250 µg/mL (Staphylococcus aureus [26]): 17 mm; zone of inhibition at 1000 µg/mL (Staphylococcus aureus [27]): 15 mm; zone of inhibition at 750 µg/mL (Staphylococcus aureus [28]): 11 mm; zone of inhibition at 500 µg/mL (Staphylococcus aureus [29]): 8 mm; growth inhibition (GI) (Staphylococcus aureus [30]): inactive; zone of inhibition at 250 µg/mL (Pseudomonas aeruginosa [31]): 11 mm; zone of inhibition at 1000 µg/mL (Micrococcus luteus [32]): 17 mm; zone of inhibition at 100 µg/mL (Pseudomonas fluorescens [33]; MTCC 2421, 48 h, read-out: DIZ): 8 mm; zone of inhibition at 1250 µg/mL (Escherichia coli [34]): 20 mm; zone of inhibition at 1000 µg/mL (Escherichia coli [35]): 18 mm; zone of inhibition at 750 µg/mL (Escherichia coli [36]): 15 mm; zone of inhibition at 250 µg/mL (Escherichia coli [37]): 10 mm; zone of inhibition at 1250 µg/mL (Pseudomonas aeruginosa [38]): 24 mm; zone of inhibition at 750 µg/mL (Pseudomonas aeruginosa [39]): 15 mm
2 | 250 (≈ 742 µM) | 150 (≈ 445 µM) | 30 (≈ 89.1 µM) | 40 (≈ 119 µM) | 150 (≈ 445 µM) | 50 (≈ 148 µM) | CC1SCC(=O)N1c1nnc2c3cc(Cl)ccc3nc-2s1 (stereo not drawn) | 17 | 10 | 8 | 18 | 12 | inactive | 10 | inactive | inactive | 19 | 12 | 8 | 18 | 15 | growth inhibition (GI) (Micrococcus luteus [19]): inactive; growth inhibition (GI) (Micrococcus luteus [20]): inactive; zone of inhibition at 750 µg/mL (Bacillus pumilus [23]): 13 mm; zone of inhibition at 250 µg/mL (Bacillus pumilus [24]): 10 mm; zone of inhibition at 100 µg/mL (Bacillus pumilus [25]): 8 mm; zone of inhibition at 1250 µg/mL (Staphylococcus aureus [26]): 19 mm; zone of inhibition at 1000 µg/mL (Staphylococcus aureus [27]): 15 mm; zone of inhibition at 750 µg/mL (Staphylococcus aureus [28]): 13 mm; zone of inhibition at 500 µg/mL (Staphylococcus aureus [29]): 10 mm; zone of inhibition at 250 µg/mL (Staphylococcus aureus [30]; MTCC 1430, 48 h, read-out: DIZ): 8 mm; zone of inhibition at 250 µg/mL (Pseudomonas aeruginosa [31]): 9 mm; zone of inhibition at 1000 µg/mL (Micrococcus luteus [32]): 17 mm; growth inhibition (GI) (Pseudomonas fluorescens [33]): inactive; zone of inhibition at 1250 µg/mL (Escherichia coli [34]): 21 mm; zone of inhibition at 1000 µg/mL (Escherichia coli [35]): 19 mm; zone of inhibition at 750 µg/mL (Escherichia coli [36]): 17 mm; zone of inhibition at 250 µg/mL (Escherichia coli [37]): 11 mm; zone of inhibition at 1250 µg/mL (Pseudomonas aeruginosa [38]): 20 mm; zone of inhibition at 750 µg/mL (Pseudomonas aeruginosa [39]): 17 mm
